Laboratory results taken from patent US20230219912A1, “HALOGENATED BENZOTHIADIAZINES FOR THE TREATMENT OF CANCER” (BOARD OF REGENTS OF THE UNIVERSITY OF NEBRASKA, priority 2020, published 2023).
Where “and” joins values, the source holds several entries; their conditions need not be identical. Equal values may be shown once. Entries after “also recorded” stand apart in the source; their conditions may differ. Read-outs that look alike come from different tables or passages of the source.

Columns and labels:
[1] = system: VEGF-induced proliferation of HUVEC cells; assay: VEGF-induced HUVEC proliferation, MTT assay; format: cell-based, human; details: for inhibition of VEGF-induced HUVEC proliferation (in words): 20 μM; for inhibition at 20 µM: Homo sapiens, HUVEC, 48 h, read-out: % Inhibition of Proliferation
Procedure: The assay was performed as follows. Vascular endothelial growth factor (VEGF, Cat #SRP3182) was purchased from Sigma. […] Stock solutions of all compounds were prepared in DMSO and were serially diluted for cell culture treatment maintaining the final DMSO concentration at less than 1%. Cell proliferation of HUVECs was evaluated through the MTT (3-[4, 5-dimethylthiazol-2-yl]-2, 5-dimethyltetrazolium bromide) colorimetric assay, as previously described.^28 The HUVECs were seeded at a density of 10,000 cells/well in 24 well plates in serum-containing medium and cultured overnight. Cells were starved with 300 μL of assay media (0.1% BSA+0.1% FBS in basal medium) for 24 h. Then, cells were treated with 500 μL of assay medium (control group), VEGF (10 ng/mL, positive control group) or VEGF along with compounds (20 μM). After 48 h of culture, 50 μL of MTT stock (5 mg/mL in PBS) was added to each well and incubated for 2 h at 37° C. to allow the formation of dark blue formazan crystals in the metabolically active cells. The medium was removed, the cells were washed with PBS (pH 7.4), and 100 μL of acidified isopropanol (0.33 mL HCl in 100 mL isopropanol) was added to each well and incubated for 5 min with thorough agitation to solubilize the formazan crystals. An equal volume of the solution was transferred to a 96-well plate and the absorbance was immediately measured using a microplate reader at a wavelength of 570 nm.

[2] = system: 22Rv1 prostate cancer cells; assay: MTS cytotoxicity assay in 22Rv1 prostate cancer cells; details: 100 μM, 48 hrs treatment, MTS
Procedure: The assay was performed as follows. To determine the cell growth inhibition ability of the synthesized compounds the (3-(4,5-dimethylthiazol-2-yl)-5-(3-carboxymethoxyphenyl)-2-(4-sulfophenyl)-2H-tetrazolium) (MTS) assay used according to the manufacturer's recommended protocol. Stock solutions of the synthesized compounds were prepared in DMSO. Cells were seeded at a density of 1×10^5 cells in 96-well plates. After 24 hours, cells were treated at the indicated concentrations of test compounds, limiting the final DMSO concentration to less than 1%. After incubation at 37° C. in an environment of 5% CO2 for 48-72 hours, 10 μL of MTS reagent (CellTiter 96© AQueous One Solution Reagent) was added to each well and incubated at the above mentioned conditions for 2-4 hr. Absorbance was recorded at 490 nm on a BioTek Synergy Mx multimode plate reader and the viability of cells were plotted as percentage of controls.

[3] = target: T1, Mitochondrial respiratory complex II (Rattus norvegicus, UniProt P21913+Q641Z9+Q6PCT8+Q920L2); assay: Mitochondrial respiratory complex II inhibition assay; format: biochemical; details: 100 μM, relative to DMSO control; for inhibition at 100 µM: read-out: inhibition of CII
T1 construct: measured spectrophotometrically using isolated rat heart mitochondria; from tissue; host or cells: rat heart mitochondria / sub-mitochondrial particles
Procedure: The assay was performed as follows. Mitochondria were isolated either from fresh rat hearts or by differential centrifugation in sucrose-based buffer as previously described.^24 Complex II enzymatic activity was determined spectrophotometrically as the rate of succinate-driven, co-enzyme Q2-linked reduction of dichlorophenolindophenol (DCPIP).^49 Mitochondria or sub-mitochondrial particles were incubated in phosphate buffer (pH 7.4) containing 40 μM DCPIP, 1 mM KCN, 10 μM rotenone, and 50 μM co-enzyme Q2. The rate of reduction of DCPIP to DCPIPH2 was followed at […] (ε=21,000 M-1). Varying amounts of succinate and inhibitors were used to determine an IC50 value. At the end of each run thenoyltrifluoroacetone (1 mM) was added and the residual TTFA-insensitive rate subtracted.

[4] = 20 μM compound, VEGF 10 ng/mL, relative to VEGF treated cells, mean ± SEM n = 3

T1 sequence (Q920L2 35-656): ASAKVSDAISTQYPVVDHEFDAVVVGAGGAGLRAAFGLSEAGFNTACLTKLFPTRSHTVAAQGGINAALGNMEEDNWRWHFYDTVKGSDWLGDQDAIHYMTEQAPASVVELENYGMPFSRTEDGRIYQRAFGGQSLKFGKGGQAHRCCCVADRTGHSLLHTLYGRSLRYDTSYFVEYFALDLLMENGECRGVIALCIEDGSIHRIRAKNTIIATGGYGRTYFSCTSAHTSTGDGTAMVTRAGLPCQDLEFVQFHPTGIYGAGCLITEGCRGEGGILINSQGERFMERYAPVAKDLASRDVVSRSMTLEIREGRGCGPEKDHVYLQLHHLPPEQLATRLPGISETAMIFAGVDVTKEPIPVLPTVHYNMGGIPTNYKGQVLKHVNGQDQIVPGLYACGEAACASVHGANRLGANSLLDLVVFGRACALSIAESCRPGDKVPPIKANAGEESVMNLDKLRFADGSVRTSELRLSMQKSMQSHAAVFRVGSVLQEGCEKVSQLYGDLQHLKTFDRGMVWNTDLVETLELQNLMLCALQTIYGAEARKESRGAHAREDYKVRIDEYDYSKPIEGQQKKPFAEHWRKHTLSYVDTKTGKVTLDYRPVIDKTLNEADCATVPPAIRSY
T1 sequence (P21913 31-282): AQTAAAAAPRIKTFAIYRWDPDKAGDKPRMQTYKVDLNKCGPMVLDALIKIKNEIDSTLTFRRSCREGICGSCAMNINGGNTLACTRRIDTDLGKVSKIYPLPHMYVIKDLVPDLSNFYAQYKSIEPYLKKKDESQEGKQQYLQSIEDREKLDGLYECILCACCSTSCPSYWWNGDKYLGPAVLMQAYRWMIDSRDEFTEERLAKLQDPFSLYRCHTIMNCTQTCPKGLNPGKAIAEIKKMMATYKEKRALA
T1 sequence (Q641Z9 1-169): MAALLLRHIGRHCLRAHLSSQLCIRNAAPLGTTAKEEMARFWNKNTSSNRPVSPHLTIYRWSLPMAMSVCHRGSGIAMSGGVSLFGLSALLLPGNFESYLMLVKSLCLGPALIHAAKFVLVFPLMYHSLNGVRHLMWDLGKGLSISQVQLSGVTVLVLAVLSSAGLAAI
T1 sequence (Q6PCT8 57-159): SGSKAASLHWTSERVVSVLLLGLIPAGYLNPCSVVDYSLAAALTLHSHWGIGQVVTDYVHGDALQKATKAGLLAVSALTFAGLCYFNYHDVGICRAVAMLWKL

## COc1ccc(CCNC2=NS(=O)(=O)c3cc(F)ccc3N2)cc1 [Compound 9a]
[1]; VEGF 10 ng/mL
  inhibition of VEGF-induced HUVEC proliferation (in words): no appreciable inhibition
[1]
  inhibition at 20 µM: 70 ± 22%

## O=C1Nc2cc(Cl)ccc2S(=O)(=O)N1 [Compound 11b, 6-chloro-3-oxo-3,4-dihydro-2H-1,2,4-benzothiadiazine1,1-dioxide]
[1]
  inhibition at 20 µM: 0%

## CSC1=NS(=O)(=O)c2ccc(Cl)cc2N1 [Compound 13b, 6-Chloro-3-methylsulfanyl-4H-1,2,4-benzothiadiazine 1,1-Dioxide]
[1]; [4]
  inhibition at 20 µM: 21 ± 23%

## CC(C)NC1=NS(=O)(=O)c2ccc(Cl)cc2N1 [Compound 14b, 6-Chloro-3-isopropylamino-4H-1,2,4-benzothiadiazine 1,1-Dioxide]
[1]
  inhibition at 20 µM: 146 ± 18%

## O=S1(=O)N=C(NCc2ccc(Cl)cc2)Nc2ccc(F)cc21 [Compound 16a, 3-((4-chlorobenzyl)amino)-7-fluoro-4H-benzo[e][1,2,4]thiadiazine 1,1-dioxide]
[2]
  reduction of 22Rv1 cell viability: inactive

## O=S1(=O)N=C(NCc2ccc(Cl)cc2)Nc2ccc(Br)cc21 [Compound 16c, 7-bromo-3-((4-chlorobenzyl)amino)-4H-benzo[e][1,2,4]thiadiazine 1,1-dioxide dioxide]
[3]
  inhibition of CII: 45%

## O=S1(=O)N=C(NCc2ccc(Cl)cc2)Nc2ccccc21 [Compound 16d, 3-((4-chlorobenzyl)amino)-4H-benzo[e][1,2,4]thiadiazine 1,1-dioxide]
[3]
  inhibition of CII: inactive

## O=S1(=O)N=C(NCc2ccc(F)cc2)Nc2cc(Cl)ccc21 [Compound 17b, 6-chloro-3-((4-fluorobenzyl)amino)-4H-benzo[e][1,2,4]thiadiazine 1,1-dioxide]
[1]; [4]
  inhibition at 20 µM: 0%

## O=S1(=O)N=C(NCCc2ccccc2)Nc2cc(Cl)ccc21 [Compound 18b, 6-chloro-3-(phenethylamino)-4H-benzo[e][1,2,4]thiadiazine 1,1-dioxide]
[1]; VEGF 10 ng/mL
  inhibition of VEGF-induced HUVEC proliferation (in words): suppressed HUVEC proliferation; also recorded: enhanced activity
[1]
  inhibition at 20 µM: 118 ± 12%

## CCNC1=NS(=O)(=O)c2ccccc2N1 [Compound 19d, 3-(ethylamino)-4H-benzo[e][1,2,4]thiadiazine 1,1-dioxide]
[1]; [4]
  inhibition at 20 µM: 81 ± 25%

## COc1ccc(CNC2=NS(=O)(=O)c3ccc(Cl)cc3N2)cc1 [Compound 20b, 6-chloro-3-((4-methoxybenzyl)amino)-4H-benzo[e][1,2,4]thiadiazine 1,1-dioxide]
[1]; VEGF 10 ng/mL
  inhibition of VEGF-induced HUVEC proliferation (in words): suppressed HUVEC proliferation; also recorded: enhanced activity
[1]; [4]
  inhibition at 20 µM: 132 ± 24%

## O=S1(=O)N=C(NC2CCCC2)Nc2ccc(F)cc21 [Compound 22a, 7-fluoro-3-(cyclopentylamino)-4H-benzo[e][1,2,4]thiadiazine 1,1-dioxide]
[3]
  inhibition of CII: inactive

## O=S1(=O)N=C(NCCCc2ccccc2)Nc2ccccc21 [Compound 23d, 3-((3-phenylpropyl)amino)-4H-benzo[e][1,2,4]thiadiazine 1,1-dioxide]
[3]
  inhibition at 100 µM: 0%
[1]; [4]
  inhibition at 20 µM: 39 ± 68%

## O=S1(=O)N=C(NCc2ccc(C(F)(F)F)cc2)Nc2ccc(F)cc21 [Compound 25a, 7-fluoro-3-((4-(trifluoromethyl)benzyl)amino)-4H-benzo[e][1,2,4]thiadiazine 1,1-dioxide]
[3]
  inhibition of CII: 7% and 0%

## O=S1(=O)N=C(NCc2ccc(C(F)(F)F)cc2)Nc2cc(Cl)ccc21 [Compound 25b, 6-chloro-3-((4-(trifluoromethyl)benzyl)amino)-4H-benzo[e][1,2,4]thiadiazine 1,1-dioxide]
[3]
  inhibition at 100 µM: 19%
[1]; [4]
  inhibition at 20 µM: 1 ± 43%

## COc1ccccc1CNC1=NS(=O)(=O)c2ccc(Cl)cc2N1 [Compound 26b, 6-chloro-3-((2-methoxybenzyl)amino)-4H-benzo[e][1,2,4]thiadiazine 1,1-dioxide]
[1]; [4]
  inhibition at 20 µM: 79 ± 26%

## Cc1ccc(CNC2=NS(=O)(=O)c3cc(F)ccc3N2)cc1 [Compound 27a, 7-fluoro-3-((4-methylbenzyl)amino)-4H-benzo[e][1,2,4]thiadiazine 1,1-dioxide]
[3]
  inhibition at 100 µM: 23%

## Cc1ccc(CNC2=NS(=O)(=O)c3ccc(Cl)cc3N2)cc1 [Compound 27b, 6-chloro-3-((4-methylbenzyl)amino)-4H-benzo[e][1,2,4]thiadiazine 1,1-dioxide]
[1]; [4]
  inhibition at 20 µM: 146 ± 18%

## COc1cccc(CNC2=NS(=O)(=O)c3ccc(Cl)cc3N2)c1 [Compound 28b, 6-chloro-3-((3-methoxybenzyl)amino)-4H-benzo[e][1,2,4]thiadiazine 1,1-dioxide]
[1]
  inhibition at 20 µM: 126 ± 26%

## O=S1(=O)N=C(NCc2ccc(F)cc2F)Nc2ccc(Br)cc21 [Compound 29c, 7-bromo-3-((2,4-difluorobenzyl)amino)-4H-benzo[e][1,2,4]thiadiazine 1,1-dioxide]
[1]; [4]
  inhibition at 20 µM: 127%

## C=CCNC1=NS(=O)(=O)c2ccc(Cl)cc2N1 [Compound 32b, 3-(allylamino)-6-chloro-4H-benzo[e][1,2,4]thiadiazine 1,1-dioxide]
[1]; [4]
  inhibition at 20 µM: 0%

## O=S1(=O)N=C(NCCc2c[nH]c3ccccc23)Nc2cc(Cl)ccc21 [Compound 36b, 3-((2-(1H-indol-3-yl)ethyl)amino)-6-chloro-4H-benzo[e][1,2,4]thiadiazine 1,1-dioxide]
[3]
  inhibition at 100 µM: 25%
[1]; [4]
  inhibition at 20 µM: 24 ± 38%

## COc1cccc(CCNC2=NS(=O)(=O)c3ccc(Cl)cc3N2)c1 [Compound 40b, 6-chloro-3-((3-methoxyphenethyl)amino)-4H-benzo[e][1,2,4]thiadiazine 1,1-dioxide]
[1]
  inhibition at 20 µM: 99 ± 22%

## Cc1ccccc1CNC1=NS(=O)(=O)c2ccc(Cl)cc2N1 [Compound 41b, 6-Chloro-3-((2-methylbenzyl)amino)-4H-benzo[e][1,2,4]thiadiazine 1,1-dioxide]
[1]; VEGF 10 ng/mL
  inhibition of VEGF-induced HUVEC proliferation (in words): suppressed HUVEC proliferation; also recorded: enhanced activity
[1]; [4]
  inhibition at 20 µM: 111 ± 9%

## CSC1=NS(=O)(=O)c2cc(F)ccc2N1C [Compound 42a, 7-fluoro-4-methyl-3-(methylthio)-4H-benzo[e][1,2,4]thiadiazine 1,1-dioxide]
[1]; VEGF 10 ng/mL
  inhibition of VEGF-induced HUVEC proliferation (in words): no appreciable inhibition
[1]; [4]
  inhibition at 20 µM: 41 ± 30%

## Cc1cccc(CNC2=NS(=O)(=O)c3ccc(Cl)cc3N2)c1 [Compound 42b, 6-Chloro-3-((3-methylbenzyl)amino)-4H-benzo[e][1,2,4]thiadiazine 1,1-dioxide]
[1]; VEGF 10 ng/mL
  inhibition of VEGF-induced HUVEC proliferation (in words): suppressed HUVEC proliferation; also recorded: enhanced activity
[1]
  inhibition at 20 µM: 125 ± 10%

## O=S1(=O)N=C(NCc2ccc(F)cc2)Nc2ccc(Cl)cc21 [Compound 54e, 7-Chloro-3-((4-fluorobenzyl)amino)-4H-benzo[e][1,2,4]thiadiazine 1,1-dioxide]
[1]; [4]
  inhibition at 20 µM: 70 ± 23%

## O=S1(=O)N=C(NCCc2ccccc2)Nc2ccc(Cl)cc21 [Compound 55e, 7-Chloro-3-(phenethylamino)-4H-benzo[e][1,2,4]thiadiazine 1,1-dioxide]
[1]
  inhibition at 20 µM: 82 ± 10%

## O=S1(=O)N=C(NCc2ccccc2)Nc2ccc(Cl)cc21 [Compound 57e, 3-(Benzylamino)-7-chloro-4H-benzo[e][1,2,4]thiadiazine 1,1-dioxide]
[1]; VEGF 10 ng/mL
  inhibition of VEGF-induced HUVEC proliferation (in words): suppressed HUVEC proliferation; also recorded: enhanced activity
[1]; [4]
  inhibition at 20 µM: 122 ± 9%

## O=S1(=O)N=C(NCc2ccncc2)Nc2ccc(Cl)cc21 [Compound 66e, 7-Chloro-3-((pyridin-4-ylmethyl)amino)-4H-benzo[e][1,2,4]thiadiazine 1,1-dioxide]
[1]; VEGF 10 ng/mL
  inhibition of VEGF-induced HUVEC proliferation (in words): suppressed HUVEC proliferation; also recorded: enhanced activity
[1]; [4]
  inhibition at 20 µM: 67 ± 27%
